Where “and” joins values, the source holds several entries; their conditions need not be identical. Equal values may be shown once.
Tests used:
[1] = target: T1, E. coli L-asparaginase ansB (type II) (Escherichia coli, UniProt P00805); experiment: L-asparaginase kinetics, NADH-dependent enzyme-coupled assay; type: biochemical; details: 50 μM Asn, pH 7.5, 37° C.
T1 construct: made in house
Method: (§1) The catalytic activity of the clones was determined using a spectroscopic NADH-dependent enzyme-coupled assay (Fernandez, et al. (2013) Int. J. Clin. Exp. Med. 6:478-487; Hejazi, et al. (2002) Biochem. J. 364:129-136), which measures the production of L-aspartic acid (Asp) through the 1:1 oxidation of reduced NADH. The conversion of NADH to NAD was measured spectrophotometrically as a decrease in absorbance at 340 nm at 37° C. All measurements were taken in triplicate in a buffer containing 100 mM Tris pH 7.5, 0.4 mM α-ketoglutarate and 0.4 mM NADH with 50 nM (hASNase1, hN-gC); 10 nM (gpASNase1, gN-hC, 63-hC, 64-hC, 65-hC, SA-hC) or 3 nM (ansB) enzyme. Glutamic-oxalacetic transaminase (Sigma) and malic dehydrogenase (Sigma) were helper enzymes for the coupled enzymatic reactions; 5 and 1 unit were used, respectively. Data were fit to the Michaelis-Menten equation using SigmaPlot (Systat Software Inc). Due to the cooperative nature of hASNase1, this enzyme was analyzed using the Hill equation.

[2] = target: T2, guinea pig L-asparaginase (gpASNase1, GpA), wild type, full length (GpA-FL), SEQ ID NO:1 (Cavia porcellus, UniProt H0W0T5); experiment: as above; type: biochemical
T2 construct: Full length GpA (GpA-FL); made in house
T2 sequence (H0W0T5 1-565): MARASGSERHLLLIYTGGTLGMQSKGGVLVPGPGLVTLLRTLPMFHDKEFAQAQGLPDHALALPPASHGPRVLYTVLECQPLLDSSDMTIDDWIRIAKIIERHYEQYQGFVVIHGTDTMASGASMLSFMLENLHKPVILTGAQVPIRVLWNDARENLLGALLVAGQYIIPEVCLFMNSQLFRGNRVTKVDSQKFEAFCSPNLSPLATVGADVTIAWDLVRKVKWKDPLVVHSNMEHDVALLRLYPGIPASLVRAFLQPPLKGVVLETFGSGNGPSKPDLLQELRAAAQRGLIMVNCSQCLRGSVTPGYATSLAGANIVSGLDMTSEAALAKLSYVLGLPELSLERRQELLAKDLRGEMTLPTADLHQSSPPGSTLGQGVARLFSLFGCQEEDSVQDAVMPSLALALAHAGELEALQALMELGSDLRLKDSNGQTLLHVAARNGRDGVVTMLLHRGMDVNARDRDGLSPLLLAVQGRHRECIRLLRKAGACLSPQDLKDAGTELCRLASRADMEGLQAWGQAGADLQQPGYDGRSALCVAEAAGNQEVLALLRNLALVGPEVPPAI
Method: as §1

[3] = target: human L-asparaginase 1 (hASNase1), wild type, SEQ ID NO:2 (Homo sapiens, UniProt Q86U10); experiment: as above; type: biochemical
Method: as §1

[4] = tested on: gN-hC, chimera of guinea pig gpASNase1 N-terminal domain (residue 1-359) and human hASNase1 C-terminal domain (residue 362-573), SEQ ID NO:37; experiment: as above; type: biochemical; details: pH 7.5, 37° C.
Excerpt: (§2) To build the clone hN-gC, the sequence corresponding to the N-terminal domain of hASNase1 (hN, residue 1-361) was amplified using the primers NdeI-hA_F1 and gpA360-367_R and the sequence corresponding to the C-terminal domain of gpASNase1 (gC, residue 360-565) was amplified using the primers hA354-361_F and gpA-BamHI_R565. To build the clone gN-hC the sequence corresponding to the N-terminal domain of gpASNase1 (gN, residue 1-359) was amplified using the primers NdeI-gpA_F1 and hA362-369_R and the sequence corresponding to the C-terminal domain of hASNase1 (hC, residue 362-573) was amplified using the primers gpA352-359_F and hA_BamHI_R573. The chimera was then constructed by PCR fusion of fragment hN and gC or gN and hC using the appropriate primers and then subsequently cloned into the pBAD and pET vectors.
as §1
(§3) Accordingly, two chimeras were generated; one, which was referred to as hN-gC and included the human N-terminal domain fused to the guinea pig C-terminal domain, and the second, which was referred to as gN-hC and included the guinea pig N-terminal domain fused to the human C-terminal domain (FIG. 1, Table 3). In vitro kinetic characterization of these chimeras validated the prediction, with hN-gC displaying kinetic properties similar to hASNase1 and gN-hC displaying kinetic properties similar to gpASNase1 (Table 4).

[5] = tested on: hN-gC, chimera of human hASNase1 N-terminal domain (residue 1-361) and guinea pig gpASNase1 C-terminal domain (residue 360-565), SEQ ID NO:38; experiment: as above; type: biochemical; details: pH 7.5, 37° C.
Excerpt: as §2, §1, §3

[6] = tested on: 63N-hC, shuffled hASNase1/gpASNase1 clone #63 with human C-terminal domain, SEQ ID NO:39; experiment: as above; type: biochemical, human / guinea pig; details: pH 7.5, 37° C.
Method: as §1
(§4) Since the goal was to identify a clone with gpASNase1 kinetic properties but with the highest sequence homology to hASNase1, the four clones, #63, #64, #65 and # SA, were engineered by replacing their shuffled C-terminal domain with the exact sequence of the human C-terminal domain (FIG. 1).
(§5) For determining the precise kinetic properties of 63N-hC, 64N-hC, 65N-hC and SAN-hC, the genes encoding these enzymes were sub-cloned into a pET14b expression vector and expressed in C41 E. coli cells. The purified clones were tested for their L-asparaginase activity (Table 4). E. coli L-asparaginase ansB was also included in order to compare the clones to an L-asparaginase approved for cancer therapy. […] Importantly, the kobs@50 μM values for the humanized clones were also in this range, being 17 sec^−1, 10 sec^−1, 17 sec^−1 and 6 sec^−1 for clones 63N-hC, 64N-hC, 65N-hC and SAN-hC, respectively.

[7] = tested on: 64N-hC, shuffled hASNase1/gpASNase1 clone #64 with human C-terminal domain, SEQ ID NO:40; experiment: as above; type: biochemical, human / guinea pig; details: pH 7.5, 37° C.
Method: as §1, §4, §5

[8] = tested on: 65N-hC, shuffled hASNase1/gpASNase1 clone #65 with human C-terminal domain, SEQ ID NO:41; experiment: as above; type: biochemical, human / guinea pig; details: pH 7.5, 37° C.
Method: as §1, §4, §5

[9] = tested on: SAN-hC, shuffled hASNase1/gpASNase1 clone #SA with human C-terminal domain, SEQ ID NO:42; experiment: as above; type: biochemical, human / guinea pig; details: pH 7.5, 37° C.
Method: as §1, §4, §5

[10] = target: T3, guinea pig L-asparaginase (GpA) variant GpA369, residues 1-369, SEQ ID NO:5 (Cavia porcellus, UniProt H0W0T5); experiment: L-asparaginase activity, kobs at 2 mM Asn; type: biochemical
T3 construct: GpA369; 1-369; SUMO (cleaved yes); made in house
Method: as §1

[11] = target: T4, guinea pig L-asparaginase (GpA) variant GpA369-C198A + K225C + E340C + E49C, SEQ ID NO:56 (Cavia porcellus, UniProt H0W0T5, C198A/E340C/E49C/K225C); experiment: L-asparaginase activity, kobs at 2 mM Asn; type: biochemical
T4 construct: made in house
Method: as §1

[12] = target: T5, guinea pig L-asparaginase (GpA) variant GpA369-C198A + K225C + E340C, SEQ ID NO:55 (Cavia porcellus, UniProt H0W0T5, C198A/E340C/K225C); experiment: L-asparaginase activity, kobs at 2 mM Asn; type: biochemical
T5 construct: made in house
Method: as §1

[13] = target: T6, guinea pig L-asparaginase (GpA) variant GpA369-C198A + K225C, SEQ ID NO:54 (Cavia porcellus, UniProt H0W0T5, C198A/K225C); experiment: L-asparaginase activity, kobs at 2 mM Asn; type: biochemical
T6 construct: GpA369-C198A + K225C; 99.4%; 71.7%; 54; made in house
Method: as §1

[14] = target: T7, guinea pig L-asparaginase (GpA) variant GpA369-C198A, SEQ ID NO:51 (Cavia porcellus, UniProt H0W0T5, C198A); experiment: L-asparaginase activity, kobs at 2 mM Asn; type: biochemical
T7 construct: made in house
Method: as §1

[15] = target: T8, guinea pig L-asparaginase (GpA) variant 10K-PEGylated-GpA369-C198A, SEQ ID NO:51 (Cavia porcellus, UniProt H0W0T5, C198A); experiment: L-asparaginase activity, kobs at 2 mM Asn; type: biochemical; details: linear PEG
T8 construct: made in house
Method: as §1
(§6) Each of the variants listed in Table 9 were recombinantly expressed, purified and PEGylated with one or more of mPEG-10K, mPEG-20K and mPEG-40K (Table 10). As determined by SDS-PAGE analysis, the size of the PEGylated enzymes increased with an increase in the number of active cysteines. For example, using maleimide-PEG10K, GpA369(hum)-C198A migrated at a higher molecular weight after PEGylation (due to the extra 10K Da supplied by the PEG), and GpA369(hum)-C198A+R52C migrated at an even higher apparent molecular weight since this variant can react with two PEG molecules (for a total of an extra 20K Da supplied by two 10K molecules linked to the enzyme). Of note, the GpA369-C198A-K225C-E340C-E49C-Q257C mutant was prepared, expressed, purified and PEGylated with mPEG-10K.

[16] = target: T9, guinea pig L-asparaginase (GpA) variant 20K-PEGylated-GpA369-C198A, SEQ ID NO:51 (Cavia porcellus, UniProt H0W0T5, C198A); experiment: L-asparaginase activity, kobs at 2 mM Asn; type: biochemical; details: linear PEG
T9 construct: made in house
Method: as §1, §6

[17] = target: T10, guinea pig L-asparaginase (GpA) variant 40K-PEGylated-GpA369-C198A, SEQ ID NO:51 (Cavia porcellus, UniProt H0W0T5, C198A); experiment: L-asparaginase activity, kobs at 2 mM Asn; type: biochemical; details: linear PEG
T10 construct: made in house
Method: as §1, §6

[18] = tested on: guinea pig L-asparaginase (gpASNase1, GpA), wild type, SEQ ID NO:1; details: Schalk, et al. (2014), cited from earlier work
[19] = tested on: E. coli L-asparaginase iiiA; details: in words; cited from earlier work
[20] = tested on: human L-asparaginase type I (hASNase1), SEQ ID NO:2; details: in words; Karamitros & Konrad (2014); Schalk, et al. (2014); cited from earlier work
[21] = substrate: NC(=O)C[C@H](N)C(=O)O; experiment: L-asparaginase kinetics, NADH-dependent enzyme-coupled assay; type: biochemical, E. coli; details: other: pH 7.5, 37° C., 3 nM enzyme
Method: as §1

Sequence of human L-asparaginase 1 (hASNase1), wild type, SEQ ID NO:2 (Q86U10 whole entry): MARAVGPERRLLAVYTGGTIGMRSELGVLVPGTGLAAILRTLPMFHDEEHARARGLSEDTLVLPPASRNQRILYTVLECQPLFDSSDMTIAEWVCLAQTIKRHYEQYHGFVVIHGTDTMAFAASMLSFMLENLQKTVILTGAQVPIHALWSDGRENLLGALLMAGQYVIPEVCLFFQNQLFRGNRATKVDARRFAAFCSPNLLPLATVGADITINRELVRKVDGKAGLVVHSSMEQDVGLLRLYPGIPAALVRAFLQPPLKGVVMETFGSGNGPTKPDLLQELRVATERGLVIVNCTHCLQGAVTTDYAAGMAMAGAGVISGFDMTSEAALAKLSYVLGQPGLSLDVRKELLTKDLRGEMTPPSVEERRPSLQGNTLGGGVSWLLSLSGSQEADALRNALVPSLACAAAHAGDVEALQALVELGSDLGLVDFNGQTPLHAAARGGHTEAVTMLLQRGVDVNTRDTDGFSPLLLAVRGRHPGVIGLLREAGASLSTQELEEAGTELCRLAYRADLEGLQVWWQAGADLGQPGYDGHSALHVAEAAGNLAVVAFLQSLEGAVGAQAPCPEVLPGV
T5 sequence (H0W0T5 1-369 C198A/K225C/E340C): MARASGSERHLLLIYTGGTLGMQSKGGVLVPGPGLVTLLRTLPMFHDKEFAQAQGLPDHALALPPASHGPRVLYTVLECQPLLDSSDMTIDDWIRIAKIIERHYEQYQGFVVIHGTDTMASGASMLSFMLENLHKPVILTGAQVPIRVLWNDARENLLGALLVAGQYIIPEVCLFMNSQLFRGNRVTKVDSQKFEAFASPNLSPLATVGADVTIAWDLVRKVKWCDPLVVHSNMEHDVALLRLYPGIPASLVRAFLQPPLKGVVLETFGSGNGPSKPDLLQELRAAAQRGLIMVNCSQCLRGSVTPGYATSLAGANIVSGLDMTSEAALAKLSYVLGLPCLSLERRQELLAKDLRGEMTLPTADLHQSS
T7 sequence (H0W0T5 1-369 C198A): as the sequence (H0W0T5 1-369 C198A/K225C/E340C) above, with C225K, C340E counted along it
T8 sequence (H0W0T5 1-369 C198A): as the sequence (H0W0T5 1-369 C198A/K225C/E340C) above, with C225K, C340E counted along it
T9 sequence (H0W0T5 1-369 C198A): as the sequence (H0W0T5 1-369 C198A/K225C/E340C) above, with C225K, C340E counted along it
T10 sequence (H0W0T5 1-369 C198A): as the sequence (H0W0T5 1-369 C198A/K225C/E340C) above, with C225K, C340E counted along it
T4 sequence (H0W0T5 1-369 E49C/C198A/K225C/E340C): as the sequence (H0W0T5 1-369 C198A/K225C/E340C) above, with E49C counted along it
T6 sequence (H0W0T5 1-369 C198A/K225C): as the sequence (H0W0T5 1-369 C198A/K225C/E340C) above, with C340E counted along it

NC(=O)C[C@H](N)C(=O)O [Asn, L-asparagine]
kobs @50 μM [1]: 41 ± 0.3 s⁻¹ | kobs @50 μM ([2]; 50 μM Asn, pH 7.5, 37° C.): 20 s⁻¹ and 20 ± 1 s⁻¹ | kobs at 2 mM ASN ([2]; 2 mM Asn, full length GpA): 41 s⁻¹ | Km ([2]; pH 7.5, 37° C., 10 nM enzyme): 50 ± 7 µM | kcat ([2]; pH 7.5, 37° C., 10 nM enzyme): 41 ± 2 s⁻¹ | kcat ([3]; Hill-equation (n = 2.1), pH 7.5, 37° C., 50 nM enzyme): 17 ± 0.8 s⁻¹ | Hill coefficient n ([3]; Hill-equation fit): *Kinetic parameters using the Hill-equation (n = 2.1) | kobs @50 μM ([4]; 50 μM Asn): 14 ± 1 s⁻¹ | kcat/Km [4]: 0.7 sec^−1μM^−1 | Km ([4]; 10 nM enzyme): 35 µM | kcat ([4]; 10 nM enzyme): 24 ± 1 s⁻¹ | kcat/Km [5]: 0.004 sec^−1μM^−1 | Km ([5]; 50 nM enzyme): 3800 ± 120 µM | kcat ([5]; 50 nM enzyme): 14 ± 0.5 s⁻¹ | kobs @50 μM ([6]; 50 μM Asn): 17 s⁻¹ and 17 ± 0.5 s⁻¹ | kcat/Km [6]: 0.7 sec^−1μM^−1 | Km ([6]; 10 nM enzyme): 47 µM | kcat ([6]; 10 nM enzyme): 32 ± 0.6 s⁻¹ | kobs @50 μM ([7]; 50 μM Asn): 10 s⁻¹ and 10 ± 1 s⁻¹ | kcat/Km [7]: 0.3 sec^−1μM^−1 | Km ([7]; 10 nM enzyme): 202 ± 17 µM | kcat ([7]; 10 nM enzyme): 60 ± 2 s⁻¹ | kobs @50 μM ([8]; 50 μM Asn): 17 s⁻¹ and 17 ± 1 s⁻¹ | kcat/Km [8]: 0.5 sec^−1μM^−1 | Km ([8]; 10 nM enzyme): 74 µM | kcat ([8]; 10 nM enzyme): 40 ± 1 s⁻¹ | kobs @50 μM ([9]; 50 μM Asn): 6 s⁻¹ and 6 ± 1 s⁻¹ | kcat/Km [9]: 0.2 sec^−1μM^−1 | Km ([9]; 10 nM enzyme): 165 µM | kcat ([9]; 10 nM enzyme): 32 ± 2 s⁻¹ | kobs at 2 mM ASN [10]: 44 s⁻¹ | kobs at 2 mM ASN [11]: 41.6 s⁻¹ | kobs at 2 mM ASN [12]: 42.4 s⁻¹ | kobs at 2 mM ASN [13]: 41.4 s⁻¹ | kobs at 2 mM ASN [14]: 43.3 s⁻¹ | kobs at 2 mM ASN [15]: 83.3 s⁻¹ | kobs at 2 mM ASN [16]: 83.7 s⁻¹ | kobs at 2 mM ASN [17]: 76.5 s⁻¹ | reaction rate (kcat) [18]: approximately 39 s^−1 | Km for Asn ([18]; in words): in the micromolar range | Km ([18]; read-out: Km for Asn): 58 µM | Km value for Asn [19]: very high | Km for Asn [20]: in the millimolar range

B1: E. coli L-asparaginase ansB (type II) (Escherichia coli K-12) (protein)
chain: LPNITILATGGTIAGGGDSATKSNYTVGKVGVENLVNAVPQLKDIANVKGEQVVNIGSQDMNDNVWLTLAKKINTDCDKTDGFVITHGTDTMEETAYFLDLTVKCDKPVVMVGAMRPSTSMSADGPFNLYNAVVTAADKASANRGVLVVMNDTVLDGRDVTKTNTTDVATFKSVNYGPLGYIHNGKIDYQRTPARKHTSDTPFDVSKLNELPKVGIVYNYANASDLPAKALVDAGYDGIVSAGVGNGNLYKSVFDTLATAAKTGTAVVRSSRVPTGATTQDAEVDDAKYGFVASGTLNPQKARVLLQLALTQTKDPQQIQQIFNQY
notes: made in house
Km [21]: 11 ± 1 µM | kcat [21]: 48 ± 1 s⁻¹ | kcat/Km [21]: 4.4e+06 M⁻¹ s⁻¹

— patent US11578315B2, “Truncated guinea pig L-asparaginase variants and methods of use” (THE BOARD OF TRUSTEES OF THE UNIVERSITY OF ILLINOIS, priority 2017, dated 2023)
